{"source": "patent US20080306028A1", "about": "“Erianin Salts, Their Preparation Methods and Pharmaceutical Compositions Containing the Same” (priority 2005, published 2008)", "key": {"solubility in water": {"test": "solubility in water", "type": "physicochemical", "settings": "product of example 1", "protocol": "As the water-solubility of Erianin is low, the solubility in water being just <1 mg/ml, its preparation performance and clinical application are limited, so it is necessary to study the salts that can improve its water-solubility. At present, there is not any literature on the salts of Erianin and it's preparing process.\nCooling the crude acyl chloride in ice bath, adding sodium hydroxide solution (2 mol/L) while stirring till the PH value of the mixture is between 8˜10, stirring for 8 hours at 50° C.˜80° C., filtering to remove the insoluble substance, decompressing to evaporate most of the solvent, cooling for the white solid to be separated, which is the crude disodium phosphate of Erianin; Dissolving the crude product with ethanol while heated, filtering to remove the insoluble solid while hot, and cooling the filtrate for separated crystal as pure disodium phosphate of Erianin (6.0 g), a white crystal product with a yield of 86% m.p. 266-269° C., (splitting), dissolubility in water: 200 mg/ml."}, "Kunming mice": {"test_system": "Kunming mice", "test": "LD50 determination of disodium phosphate of Erianin", "type": "in vivo", "settings": "for deaths, death rate in total: 10 mice", "protocol": "Experimental animal: Kunming mice, provided by Shanghai Slac Laboratory Animal Co., Ltd., weight being between 18˜22 g, half and half of female and male.\nReagent: 0.9% NaCl, disodium phosphate of Erianin (AP), provided by Zhejiang Cell Biomedical Research Co., Ltd., which is prepared by the process above, bitter acid.\n(1) Experimental animal: Kunming mice, set up in 7 groups, 10 mice every group and half and half of female and male. Marked by bitter acid.\n(2) In every group, administering by vena caudalis injection according to body weight of 1300 mg/kg, 1250 mg/kg, 1200 mg/kg, 1150 mg/kg, 1100 mg/kg, 1050 mg/kg, 1000 mg/kg.\n(3) Observing at 0.25 h, 0.5 h, 1 h, 2 h, 4 h, 24 h respectively after administration and recording the death rate; then observing once every day and recording the death rate (table 1) for 14 days; putting the mice still alive to death on the 15th day and giving pathological anatomy."}, "S180 tumor": {"test_system": "S180 tumor", "settings": "for Weight 10 d: body weight day 10; for Tumor weight / rate of tumor inhibition: day 10; for Weight 0 d: body weight day 0", "excerpt": "Samples: disodium phosphate of Erianin (AP, prepared by the process of example 1) prepared the concentration needed with physiologic saline.\nControl medicine: cyclophosphamide for injection (CTX), Shanghai Hualian Pharmaceutical Co., Ltd, batch number: 020806. dissolved with physiologic saline for use.\nFifty Kunming mice, female, weight: […], provided by the animal house in Shanghai Institute of Pharmaceutical Industry.\nTwo S180 ascites tumor mice, provided by the animal house in Shanghai Institute of Pharmaceutical Industry.\nDrawing ascites under aseptic condition from S180 ascites tumor mice, counting the cells, diluting to 1-2×10^7/ml with physiologic saline, giving subcutaneous inoculation in the armpit of the mice with 0.2 ml each, randomly dividing the mice equally into five groups the next day, ten in each group.\nDosage for administration (mg/kg./d): AP 25 mg/kg, 75 mg/kg, 225 mg/kg\nMeans of administration: intravenous injection\nThe control medicine, cyclophosphamide, administered by intravenous injection, the dosage being 30 mg/kg×9d.\nAnd setting up blank control group.\nAdministering medicine to the mice by weight the next day of inoculation, […] 0.5 ml/20 g for 9 days, by weight, and putting them to death on the tenth day after inoculation, weighing the tumor and calculating the rate of tumor inhibition.\nAssessing the result according to the following formula: […]"}, "liver cancer of mouse": {"test_system": "liver cancer of mouse", "settings": "cited from earlier work"}, "[1]": {"settings": "background statement; cited from earlier work"}, "tumor cell strain K256": {"test_system": "tumor cell strain K256", "settings": "among dihydrobibenzyls and phenanthrenes in Dendrobium chrysotoxum; cited from earlier work"}, "[2]": {"test_system": "human leukemia HL-60 cells", "settings": "cited from earlier work"}}, "note": "Read-outs that look alike come from different tables or passages of the source.", "data": [{"molecule": "3,4,5,4′-tetramethoxyl diphenylethane-3′-O-disodic phosphate [AP]", "values": [{"measurement": "dissolubility in water", "setting": "solubility in water", "result": 200, "unit": "mg/mL"}, {"measurement": "deaths, death rate in total", "setting": "Kunming mice; 1000 mg/kg i.v.", "result": 0}, {"measurement": "deaths, death rate in total", "setting": "Kunming mice; 1050 mg/kg i.v.", "result": 1}, {"measurement": "deaths", "setting": "Kunming mice; 1050 mg/kg i.v., day 1", "result": 1}, {"measurement": "deaths, death rate in total", "setting": "Kunming mice; 1100 mg/kg i.v.", "result": 3}, {"measurement": "deaths", "setting": "Kunming mice; 1100 mg/kg i.v., day 1", "result": 3}, {"measurement": "deaths, death rate in total", "setting": "Kunming mice; 1150 mg/kg i.v.", "result": 1}, {"measurement": "deaths", "setting": "Kunming mice; 1150 mg/kg i.v., day 1", "result": 1}, {"measurement": "deaths, death rate in total", "setting": "Kunming mice; 1200 mg/kg i.v.", "result": 3}, {"measurement": "deaths", "setting": "Kunming mice; 1200 mg/kg i.v., day 5", "result": 1}, {"measurement": "deaths", "setting": "Kunming mice; 1200 mg/kg i.v., day 6", "result": 1}, {"measurement": "deaths", "setting": "Kunming mice; 1200 mg/kg i.v., hours 0-4", "result": 1}, {"measurement": "deaths, death rate in total", "setting": "Kunming mice; 1250 mg/kg i.v.", "result": 6}, {"measurement": "deaths", "setting": "Kunming mice; 1250 mg/kg i.v., day 1", "result": 3}, {"measurement": "deaths", "setting": "Kunming mice; 1250 mg/kg i.v., day 2", "result": 2}, {"measurement": "deaths", "setting": "Kunming mice; 1250 mg/kg i.v., hours 0-4", "result": 1}, {"measurement": "deaths, death rate in total", "setting": "Kunming mice; 1300 mg/kg i.v.", "result": 7}, {"measurement": "deaths", "setting": "Kunming mice; 1300 mg/kg i.v., day 1", "result": 6}, {"measurement": "deaths", "setting": "Kunming mice; 1300 mg/kg i.v., day 3", "result": 1}, {"measurement": "LD50", "setting": "Kunming mice; Kunming mice, vena caudalis injection, 14 days observation", "result": 1243.0377, "unit": "mg/kg"}, {"measurement": "pathological anatomy", "setting": "Kunming mice; mice died during the experiment and mice executed after 14 days", "result": "no obvious pathological change"}, {"measurement": "Weight 10 d", "setting": "S180 tumor; 25 mg/kg i.v. for 9 days", "result": "22.93 ± 1.28", "unit": "g"}, {"measurement": "Tumor weight", "setting": "S180 tumor; 25 mg/kg i.v. for 9 days", "result": "1.42 ± 0.26"}, {"measurement": "rate of tumor inhibition", "setting": "S180 tumor; 25 mg/kg i.v. for 9 days", "result": 42, "unit": "%"}, {"measurement": "Weight 0 d", "setting": "S180 tumor; 25 mg/kg i.v.", "result": "18.37 ± 1.58", "unit": "g"}, {"measurement": "Weight 10 d", "setting": "S180 tumor; 75 mg/kg i.v. for 9 days", "result": "22.75 ± 2.25", "unit": "g"}, {"measurement": "Tumor weight", "setting": "S180 tumor; 75 mg/kg i.v. for 9 days", "result": "0.82 ± 0.20"}, {"measurement": "rate of tumor inhibition", "setting": "S180 tumor; 75 mg/kg i.v. for 9 days", "result": 67, "unit": "%"}, {"measurement": "Weight 0 d", "setting": "S180 tumor; 75 mg/kg i.v.", "result": "18.41 ± 1.74", "unit": "g"}, {"measurement": "Weight 10 d", "setting": "S180 tumor; 225 mg/kg i.v. for 9 days", "result": "22.01 ± 3.46", "unit": "g"}, {"measurement": "Tumor weight", "setting": "S180 tumor; 225 mg/kg i.v. for 9 days", "result": "0.69 ± 0.08"}, {"measurement": "rate of tumor inhibition", "setting": "S180 tumor; 225 mg/kg i.v. for 9 days", "result": 72, "unit": "%"}, {"measurement": "Weight 0 d", "setting": "S180 tumor; 225 mg/kg i.v.", "result": "19.65 ± 1.26", "unit": "g"}]}, {"molecule": "O=P1(N(CCCl)CCCl)NCCCO1", "note": "(centres unmarked) [CTX, cyclophosphamide, reference compound]", "values": [{"measurement": "Weight 0 d", "setting": "S180 tumor; 30 mg/kg i.v.", "result": "19.78 ± 1.20", "unit": "g"}, {"measurement": "Weight 10 d", "setting": "S180 tumor; 30 mg/kg×9d i.v.", "result": "19.58 ± 2.54", "unit": "g"}, {"measurement": "Tumor weight", "setting": "S180 tumor; 30 mg/kg×9d i.v.", "result": "0.41 ± 0.17"}, {"measurement": "rate of tumor inhibition", "setting": "S180 tumor; 30 mg/kg×9d i.v.", "result": 83, "unit": "%"}]}, {"molecule": "COc1ccc(CCc2cc(OC)c(OC)c(OC)c2)cc1O", "note": "[Erianin]", "values": [{"measurement": "tumor inhibitory rate", "setting": "liver cancer of mouse", "result": 50.82, "unit": "%"}, {"measurement": "solubility in water", "setting": "[1]", "result": "< 1", "unit": "mg/mL"}, {"measurement": "inhibitory effect on the growth of tumor cell strain K256", "setting": "tumor cell strain K256", "result": "the most active"}, {"measurement": "growth of human leukemia HL-60 cells", "setting": "[2]", "result": "significantly inhibited"}]}]}
